Drawing on BindingDB's records for doi:10.1021/jm9701583 (R.W. Johnson Pharmaceutical Research Institute, 1997), this text covers IC50 for six molecules.

Molecules are shown by their SMILES.

This assay deals with DNA gyrase (Escherichia coli). In words: Inhibition of supercoiling activity of DNA gyrase in Escherichia coli.

`CC(c1ccc2c(c1)Nc1ccccc1S2)N(O)C(=O)c1ccccc1-c1ccccc1C(=O)O` (stereo unspecified) displayed an IC50 of 1360 µM.

`COc1cc(C(C)N(O)C(=O)c2ccccc2-c2ccccc2C(=O)O)cc(OC)c1OC` (stereo unspecified) came in with a half-maximal inhibitory concentration (IC50) above 1100 µM.

The molecule `CC(c1ccc2oc(-c3ccccc3)cc2c1)N(O)C(=O)c1ccccc1-c1ccccc1C(=O)O` (stereo unspecified) gave an IC50 of 121 µM.

Molecule `CC(c1ccc2c(ccc3ccccc32)c1)N(O)C(=O)c1ccccc1-c1ccccc1C(=O)O` (stereo unspecified) returned a 50% inhibitory concentration (IC50) of 205 µM.

Take `CC(c1ccccc1)N(O)C(=O)c1ccccc1-c1ccccc1C(=O)O` (stereo unspecified): the half-inhibitory concentration (IC50) was above 1380 µM.

Molecule `CC(c1ccc(N2CCN(c3ccccc3)CC2)cc1)N(O)C(=O)c1ccccc1-c1ccccc1C(=O)O` (stereo unspecified) gave an IC50 above 958 µM.
